Results taken from patent US12509453B2, “BRM/BRG1 inhibitors and uses thereof” (Foghorn Therapeutics Inc., priority 2019, dated 2025).

Key:
[1] = target: T1, BRM (Homo sapiens, UniProt P51531); assay: ATPase catalytic activity assay (ADP-Glo), BRM; assay type: biochemical; settings: 30 nM BRM, 400 μM ATP; for IC50: 20 nM salmon sperm DNA, read-out: BRM IP50 (μM)*
T1 construct: made in house; host or cells: High Five insect cells
Experimental: (§1) The ATPase catalytic activity of BRM or BRG-1 was measured by the in vitro biochemical assay using ADP-Glo™ (Promega, V9102). The ADP-Glo™ kinase assay is performed in two steps once the reaction is complete. The first step is to deplete any unconsumed ATP in the reaction. The second step is to convert the reaction product ADP to ATP, which will be utilized by the luciferase to generate luminesce and be detected by a luminescence reader, such as Envision.
(§2) The assay reaction mixture (10 μL) contains 30 nM of BRM or BRG-1, 20 nM salmon sperm DNA (from Invitrogen, UltraPure™ Salmon Sperm DNA Solution, cat #15632011), and 400 μM of ATP in the ATPase assay buffer, which comprises of 20 mM Tris, pH 8, 20 mM MgCl2, 50 mM NaCl, 0.1% Tween-20, and 1 mM fresh DTT (Pierce™ DTT (Dithiothreitol), cat #20290). The reaction is initiated by the addition of the 2.5 μL ATPase solution to 2.5 μL ATP/DNA solution on low volume white Proxiplate-384 plus plate (PerkinElmer,cat #6008280) and incubates at room temperature for 1 hour. Then following addition of 5 μL of ADP-Glo™ Reagent provided in the kit, the reaction incubates at room temperature for 40 minutes. Then 10 μL of Kinase Detection Reagent provided in the kit is added to convert ADP to ATP, and the reaction incubates at room temperature for 60 minutes. Finally, luminescence measurement is collected with a plate-reading luminometer, such as Envision.
as §1, with “The” for “The ATPase catalytic activity of BRM or BRG-1 was measured by the in vitro biochemical assay using ADP-Glo™ (Promega, V9102). The”
as §2, with “BRG1,” for “BRG-1,”

[2] = target: T2, BRG-1 (Homo sapiens, UniProt P51532); assay: ATPase catalytic activity assay (ADP-Glo), BRG-1; assay type: biochemical; settings: 30 nM BRG-1, 400 μM ATP; for IC50: 20 nM salmon sperm DNA, read-out: BRG1 IP50 (μM)*; for Emax: read-out: BRG1 Max % Inhibition
T2 construct: made in house; host or cells: High Five insect cells
T2 sequence (P51532 whole entry): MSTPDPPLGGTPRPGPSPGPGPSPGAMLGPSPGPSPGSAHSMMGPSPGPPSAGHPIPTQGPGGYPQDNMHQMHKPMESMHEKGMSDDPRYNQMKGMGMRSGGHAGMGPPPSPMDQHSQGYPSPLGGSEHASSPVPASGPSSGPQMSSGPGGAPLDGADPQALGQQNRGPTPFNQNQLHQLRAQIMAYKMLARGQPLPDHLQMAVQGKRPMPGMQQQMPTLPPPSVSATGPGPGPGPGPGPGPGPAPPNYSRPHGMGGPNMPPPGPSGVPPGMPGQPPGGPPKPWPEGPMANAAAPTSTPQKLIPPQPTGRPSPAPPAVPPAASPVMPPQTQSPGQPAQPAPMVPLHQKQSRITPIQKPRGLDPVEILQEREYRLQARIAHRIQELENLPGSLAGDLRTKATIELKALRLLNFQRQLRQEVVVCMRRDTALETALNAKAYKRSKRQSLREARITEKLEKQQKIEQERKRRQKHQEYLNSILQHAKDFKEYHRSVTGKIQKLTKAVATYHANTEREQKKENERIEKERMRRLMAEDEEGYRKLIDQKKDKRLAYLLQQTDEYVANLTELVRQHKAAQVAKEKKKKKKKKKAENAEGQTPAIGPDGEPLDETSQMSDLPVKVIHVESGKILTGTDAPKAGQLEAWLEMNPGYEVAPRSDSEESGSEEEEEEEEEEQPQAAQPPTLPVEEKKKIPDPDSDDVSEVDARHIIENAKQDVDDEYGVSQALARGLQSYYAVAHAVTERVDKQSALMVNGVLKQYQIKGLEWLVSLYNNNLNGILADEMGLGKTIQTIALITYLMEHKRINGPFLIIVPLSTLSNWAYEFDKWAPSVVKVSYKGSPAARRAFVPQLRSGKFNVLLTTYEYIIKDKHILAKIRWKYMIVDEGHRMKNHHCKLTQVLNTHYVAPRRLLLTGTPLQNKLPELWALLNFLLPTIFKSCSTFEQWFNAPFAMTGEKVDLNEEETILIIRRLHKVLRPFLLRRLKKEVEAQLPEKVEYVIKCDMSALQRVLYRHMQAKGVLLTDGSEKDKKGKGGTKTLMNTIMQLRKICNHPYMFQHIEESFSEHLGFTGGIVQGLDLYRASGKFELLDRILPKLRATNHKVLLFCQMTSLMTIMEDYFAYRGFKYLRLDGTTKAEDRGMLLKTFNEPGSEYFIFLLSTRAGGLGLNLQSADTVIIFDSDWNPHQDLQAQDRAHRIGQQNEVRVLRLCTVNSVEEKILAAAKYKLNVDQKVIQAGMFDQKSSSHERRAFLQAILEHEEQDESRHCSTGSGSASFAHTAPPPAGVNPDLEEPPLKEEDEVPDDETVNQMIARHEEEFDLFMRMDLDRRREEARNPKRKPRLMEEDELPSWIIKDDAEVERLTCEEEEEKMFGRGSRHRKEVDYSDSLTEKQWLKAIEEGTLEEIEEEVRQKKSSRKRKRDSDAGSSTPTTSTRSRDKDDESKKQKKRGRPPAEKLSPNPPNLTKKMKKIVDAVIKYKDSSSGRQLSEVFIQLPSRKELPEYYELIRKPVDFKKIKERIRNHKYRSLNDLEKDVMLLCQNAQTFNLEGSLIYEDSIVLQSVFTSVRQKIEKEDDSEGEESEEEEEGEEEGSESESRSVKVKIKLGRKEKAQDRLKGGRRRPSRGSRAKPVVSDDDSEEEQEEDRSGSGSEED
Experimental: as §1, §2
as §1, with “The” for “The ATPase catalytic activity of BRM or BRG-1 was measured by the in vitro biochemical assay using ADP-Glo™ (Promega, V9102). The”
as §2, with “BRG1,” for “BRG-1,”

T1 sequence (P51531 whole entry): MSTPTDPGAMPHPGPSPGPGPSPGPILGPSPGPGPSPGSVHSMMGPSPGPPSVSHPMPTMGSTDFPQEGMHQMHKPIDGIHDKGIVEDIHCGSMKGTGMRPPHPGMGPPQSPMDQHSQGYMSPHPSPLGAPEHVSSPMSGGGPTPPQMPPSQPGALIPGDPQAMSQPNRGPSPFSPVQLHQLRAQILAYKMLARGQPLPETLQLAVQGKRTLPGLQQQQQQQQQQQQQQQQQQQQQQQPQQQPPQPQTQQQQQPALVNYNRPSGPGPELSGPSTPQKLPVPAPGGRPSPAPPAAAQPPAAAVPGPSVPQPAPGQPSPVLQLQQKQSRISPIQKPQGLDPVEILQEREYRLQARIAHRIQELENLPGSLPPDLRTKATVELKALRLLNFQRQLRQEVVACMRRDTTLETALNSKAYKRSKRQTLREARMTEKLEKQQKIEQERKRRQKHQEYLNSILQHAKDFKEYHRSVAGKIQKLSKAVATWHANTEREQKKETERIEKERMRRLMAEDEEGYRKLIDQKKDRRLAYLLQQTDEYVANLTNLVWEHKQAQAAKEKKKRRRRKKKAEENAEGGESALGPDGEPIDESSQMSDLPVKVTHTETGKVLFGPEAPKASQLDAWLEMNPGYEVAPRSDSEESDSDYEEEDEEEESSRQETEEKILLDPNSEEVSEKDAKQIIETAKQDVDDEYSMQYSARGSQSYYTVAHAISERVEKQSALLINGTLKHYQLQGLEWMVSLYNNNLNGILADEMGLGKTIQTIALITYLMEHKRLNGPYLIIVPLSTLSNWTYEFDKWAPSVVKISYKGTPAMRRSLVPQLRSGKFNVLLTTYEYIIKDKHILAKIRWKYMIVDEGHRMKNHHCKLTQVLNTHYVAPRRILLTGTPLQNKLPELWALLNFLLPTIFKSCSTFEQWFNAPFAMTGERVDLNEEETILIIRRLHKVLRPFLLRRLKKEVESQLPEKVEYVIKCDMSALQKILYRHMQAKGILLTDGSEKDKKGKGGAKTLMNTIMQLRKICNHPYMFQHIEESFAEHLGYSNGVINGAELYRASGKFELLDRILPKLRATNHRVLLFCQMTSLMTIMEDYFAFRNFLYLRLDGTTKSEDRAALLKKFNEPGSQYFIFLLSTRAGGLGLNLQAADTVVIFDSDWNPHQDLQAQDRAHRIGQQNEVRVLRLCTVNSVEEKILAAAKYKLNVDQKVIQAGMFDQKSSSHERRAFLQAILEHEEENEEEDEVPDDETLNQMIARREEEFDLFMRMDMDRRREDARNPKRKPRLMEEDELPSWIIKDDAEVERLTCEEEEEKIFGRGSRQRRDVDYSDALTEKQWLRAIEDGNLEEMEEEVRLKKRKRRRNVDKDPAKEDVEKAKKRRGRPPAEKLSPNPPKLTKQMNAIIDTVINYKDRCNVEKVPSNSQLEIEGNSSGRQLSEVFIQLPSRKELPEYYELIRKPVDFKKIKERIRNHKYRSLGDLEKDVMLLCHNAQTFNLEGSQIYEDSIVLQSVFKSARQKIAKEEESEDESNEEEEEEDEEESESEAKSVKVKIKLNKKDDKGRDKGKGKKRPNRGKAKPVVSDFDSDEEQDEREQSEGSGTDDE

| Structure (SMILES) | IC50 [1] [µM] | IC50 [2] [µM] | BRM Max % Inhibition [1] [%] | Emax [2] [%] |
| --- | --- | --- | --- | --- |
| C[C@@H]1CN(c2cccc(-c3csc(NC(=O)CNC(=O)c4cc(Cl)n(S(C)(=O)=O)c4)n3)c2)C[C@H](C)O1 [Compound 44, 5-chloro-N-(2-((4-(3-((2R,6S)-2,6-dimethylmorpholino)phenyl)thiazol-2-yl)amino)-2-oxoethyl)-1-(methylsulfonyl)-1H-pyrrole-carboxamide] | < 0.1 | < 0.1 |  |  |
| CS(=O)(=O)n1cc(C(=O)NCC(=O)Nc2nc(-c3cccc(-c4ccncc4)c3)cs2)c2ccccc21 [Compound 1, 1-(methylsulfonyl)-N-(2-oxo-2-((4-(3-(pyridin-4-yl)phenyl)thiazol-2-yl)amino)ethyl)-1H-indole-3-carboxamide] | 0.1 to 1 | > 5 | >70 | < 30 |
| Cc1nccc(-c2cccc(-c3csc(NC(=O)CNC(=O)c4cn(S(=O)(=O)C(C)C)c(C)c4C)n3)c2)n1 [Compound 17] | < 0.1 | 0.1 to 1 | >95 | > 80 |
| Cc1cc(C(=O)NCC(=O)Nc2nc(-c3cccc(-c4ccnc(N(C)CC(=O)O)c4)c3)cs2)cn1S(C)(=O)=O [Compound 45, N-methyl-N-(4-(3-(2-(2-(5-methyl-1-(methylsulfonyl)-1H-pyrrole-3-carboxamido)acetamido)thiazol-4-yl)phenyl)pyridin-2-yl)glycine] | < 0.1 | < 0.1 |  |  |
| Cc1cc(-c2cccc(-c3csc(NC(=O)CNC(=O)c4cn(S(=O)(=O)C(C)C)c(C)c4C)n3)c2)ccn1 [Compound 13, 1-(isopropylsulfonyl)-4,5-dimethyl-N-(2-((4-(3-(2-methylpyridin-4-yl)phenyl)thiazol-2-yl)amino)-2-oxoethyl)-1H-pyrrole-3-carboxamide] | 0.1 to 1 | 1 to 5 | >95 | > 80 |
| CC(C)S(=O)(=O)n1cc(C(=O)NCC(=O)Nc2nc(-c3cccc(N4C[C@@H](C)O[C@@H](C)C4)c3)cs2)cc1Cl [Compound 36] | 0.1 to 1 | 1 to 5 | >90 | > 60 |
| Cc1cc(-c2cccc(-c3csc(NC(=O)CNC(=O)c4cn(S(C)(=O)=O)c5ccccc45)n3)n2)ncn1 [Compound 23, N-(2-((4-(6-(6-methylpyrimidin-4-yl)pyridin-2-yl)thiazol-2-yl)amino)-2-oxoethyl)-1-(methylsulfonyl)-1H-indole-3-carboxamide] | 0.1 to 1 | 1 to 5 | >90 | > 40 |
| CS(=O)(=O)n1cc(C(=O)NCC(=O)Nc2nc(-c3cccc(-c4ccncc4)c3)cs2)c2c1CCCC2 [Compound 5, 1-(methylsulfonyl)-N-(2-oxo-2-((4-(3-(pyridin-4-yl)phenyl)thiazol-2-yl)amino)ethyl)-4,5,6,7-tetrahydro-1 H-indole-3-carboxamide] | < 0.1 | > 5 | >60 | < 30 |
| CC(C)S(=O)(=O)n1cc(C(=O)NCC(=O)Nc2nc(-c3cccc(N4C[C@@H](C)O[C@@H](C)C4)n3)cs2)cc1Cl [Compound 37, 5-chloro-N-(2-((4-(6-((cis)-2,6-dimethylmorpholino)pyridin-2-yl)thiazol-2-yl)amino)-2-oxoethyl)-1-(isopropylsulfonyl)-1H-pyrrole-3-carboxamide] | 0.1 to 1 | 1 to 5 | >80 | > 40 |
| CC(C)S(=O)(=O)n1cc(C(=O)NCC(=O)Nc2nc(-c3cccc(-c4ccncc4)c3)cs2)c(Cl)c1Cl [Compound 30, 4,5-dichloro-1-isopropylsulfonyl-N-[2-oxo-2-[[4-[3-(4-pyridyl)phenyl]thiazol-2-yl]amino]ethyl]pyrrole-3-carboxamide] | < 0.1 | > 5 | >50 | < 30 |
| Cc1cc(-c2cccc(-c3csc(NC(=O)CNC(=O)c4cc(CO)n(S(=O)(=O)C(C)C)c4)n3)c2)cc(C)n1 [Compound 25, N-(2-((4-(3-(2,6-dimethylpyridin-4-yl)phenyl)thiazol-2-yl)amino)-2-oxoethyl)-5-(hydroxymethyl)-1-(isopropylsulfonyl)-1H-pyrrole-3-carboxamide] | < 0.1 | 0.1 to 1 | >95 | > 80 |
| Cc1c(C(=O)NCC(=O)Nc2nc(-c3cccc(N4C[C@@H](C)O[C@@H](C)C4)c3)cs2)cn(S(C)(=O)=O)c1C [Compound 15] | < 0.1 | 0.1 to 1 | >95 | > 90 |
| C[C@@H]1CN(c2cccc(-c3csc(NC(=O)CNC(=O)c4cnn(C(C)(C)C)c4Cl)n3)c2)C[C@H](C)O1 [Compound 43, 1-(tert-butyl)-5-chloro-N-(2-((4-(3-((2R,6S)-2,6-dimethylmorpholino)phenyl)thiazol-2-yl)amino)-2-oxoethyl)-1H-pyrazole-4-carboxamide] | < 0.1 | 0.1 to 1 |  |  |

Results, then the molecule that gave them:

| IC50 [1] [µM] | IC50 [2] [µM] | BRM Max % Inhibition [1] [%] | Emax [2] [%] | Structure (SMILES) |
| --- | --- | --- | --- | --- |
| < 0.1 | < 0.1 |  |  | CNC(=O)CN(C)c1cc(-c2cccc(-c3csc(NC(=O)CNC(=O)c4cc(C)n(S(C)(=O)=O)c4)n3)c2)ccn1 [Compound 46, 5-methyl-N-(2-((4-(3-(2-(methyl(2-(methylamino)-2-oxoethyl)amino)pyridin-4-yl)phenyl)thiazol-2-yl)amino)-2-oxoethyl)-1-(methylsulfonyl)-1H-pyrrole-3-carboxamide] |
| < 0.1 | < 0.1 | >95 | > 80 | Cc1c(C(=O)NCC(=O)Nc2nc(-c3cccc(-c4ccncc4)c3)cs2)cn(S(C)(=O)=O)c1C [Compound 11, 4,5-dimethyl-1-(methylsulfonyl)-N-(2-oxo-2-((4-(3-(pyridin-4-yl)phenyl)thiazol-2-yl)amino)ethyl)-1H-pyrrole-3-carboxamide] |
| 0.1 to 1 | 0.1 to 1 | >95 | > 70 | Cc1cc(C(=O)NCC(=O)Nc2nc(-c3cccc(N4C[C@@H](C)O[C@@H](C)C4)c3)cs2)cn1S(=O)(=O)C(C)C [Compound 8, N-(2-((4-(3-((2S,6R)-2,6-dimethylmorpholino)phenyl)thiazol-2-yl)amino)-2-oxoethyl)-1-(isopropylsulfonyl)-5-methyl-1H-pyrrole-3-carboxamide] |
| 0.1 to 1 | > 5 | >60 | < 30 | Cc1nccc(-c2cccc(-c3csc(NC(=O)CNC(=O)c4cc(Cl)n(S(=O)(=O)C(C)C)c4)n3)n2)n1 [Compound 24, 5-chloro-1-(isopropylsulfonyl)-N-(2-((4-(6-(2-methylpyrimidin-4-yl)pyridin-2-yl)thiazol-2-yl)amino)-2-oxoethyl)-1H-pyrrole-3-carboxamide] |
| < 0.1 | 0.1 to 1 | >95 | > 95 | Cc1cc(-c2cccc(-c3csc(NC(=O)CNC(=O)c4cc(C)n(S(=O)(=O)C(C)C)c4)n3)c2)cc(C)n1 [Compound 7, N-(2-((4-(3-(2,6-dimethylpyridin-4-yl)phenyl)thiazol-2-yl)amino)-2-oxoethyl)-1-(isopropylsulfonyl)-5-methyl-1H-pyrrole-3-carboxamide] |
| 0.1 to 1 | 1 to 5 | >80 | > 70 | CS(=O)(=O)n1cc(C(=O)NCC(=O)Nc2nc(-c3cccc(-c4ccncc4)c3)cs2)c2ccncc21 [Compound 2, 1-(methylsulfonyl)-N-(2-oxo-2-((4-(3-(pyridin-4-yl)phenyl)thiazol-2-yl)amino)ethyl)-1H-pyrrolo[2,3-c]pyridine-3-carboxamide] |
